Measured values published in patent publication US10570104B2, “Metabolically programmed metal chelators and uses thereof” (University of Florida Research Foundation, Incorporated, priority 2015, dated 2020).
Entries after “also recorded” stand apart in the source; their conditions may differ. Where two headings read alike, the source gives them in different places.

Tests used:
[1] = cited from earlier work
[2] = log Papp, octanol/TRIS buffer pH 7.4, shake flask direct method; assay type: physicochemical; details: not told
Source text: The redesign of 2 was predicated on the observation that both ligands 2 and 3 were orally active iron chelators in rodents and primates (Table 1), and that when the 4′-(OH) of 2 was methylated, providing (S)-4,5-dihydro-2-(2-hydroxy-4-methoxyphenyl)-4-methyl-4-thiazolecarboxylic acid^43 [(S)-4′-(CH3O)-DADFT, 4], there was a remarkable enhancement in both ICE and lipophilicity (log Papp). The log Papp data are expressed as the log of the fraction of the chelator seen in the octanol layer; measurements were done in TRIS buffer, pH 7.4, using a “shake flask” direct method.^49 The more negative the log Papp, the less chelator is in the octanol phase, the less lipophilic. Unfortunately, the increase in ICE of 4 came with a concomitant increase in toxicity.^50 Thus, the delicate balance between the increase in ICE and toxicity with enhanced lipophilicity needed to be understood and exploited.

[3] = Chelator-induced iron clearance (ICE) in iron-overloaded Cebus apella primates; assay type: in vivo, Cebus apella monkeys; details: 75 μmol/kg, monosodium salt
Procedure: Iron Loading of Cebus apella Monkeys. The monkeys (3.5-6.5 kg) were iron overloaded with intravenous iron dextran as specified in earlier publications to provide about 500 mg of iron per kg of body weight; the serum transferrin iron saturation rose to between 70 and 80%.^38,40 At least 20 half-lives, 60 days, elapsed before any of the animals were used in experiments evaluating iron-chelating agents.
Primate Fecal and Urine Samples. Fecal and urine samples were collected at 24 hours intervals and processed as described previously^38,40,74 Briefly, the collections began 4 days prior to the administration of the test drug and continued for an additional 5 days after the drug was given. Iron concentrations were determined by flame absorption spectroscopy as presented in other publications.^38′^40
Drug Preparation and Administration.
Calculation of Chelator Iron Clearing Efficiency (ICE).

[4] = Tissue distribution/metabolism of chelators in rats given sc (HPLC); assay type: in vivo, Sprague-Dawley rats
Procedure: Collection of Chelator Tissue Distribution Samples from Rodents. Male Sprague-Dawley rats (250-350 g) were given a single subcutaneously injection of the monosodium salts of 8 and 11 prepared as described above at a dose of […]. At times 0.5, 1, 2, 4 and 8 hours after dosing (n=3 rats per time point), the animals were euthanized by exposure to CO2 gas. Blood was obtained via cardiac puncture into vacutainers containing sodium citrate. The blood was centrifuged, and the plasma was separated for analysis. The liver, kidney, heart, and pancreas were removed from the animals and frozen.
Tissue Analytical Methods. Tissue samples of animals treated with 8 were prepared for HPLC analysis by homogenizing them in H2O at a ratio of 1:1 (w/v). Then, as a rinse, CH3OH at a ratio of 1:3 (w/v) was added, and the mixture was stored at −20° C. for 30 min. This homogenate was centrifuged. The supernatant was diluted with H2O, vortexed, and filtered with a 0.2 μm membrane. Analytical separation was performed on a Supelco Discovery RP Amide C16 HPLC system with UV detection at 310 nm as described previously.^44,75 Mobile phase and chromatographic conditions were as follows: solvent A, 5% CH3CN/95% buffer (25 mM KH2PO4+2.5 mM 1-octanesulfonic acid, pH 3.0); solvent B, 60% CH3CN/40% buffer.
Tissue samples of animals treated with 11 were prepared for HPLC analysis by homogenizing them in 0.5 N HClO4 at a ratio of 1:3 (w/v). Then, as a rinse, CH3OH at a ratio of 1:3 (w/v) was added, and the mixture was stored at −20° C. for 30 min. This homogenate was centrifuged. The supernatant was diluted with 95% buffer (25 mM KH2PO4, pH 3.0)/5% CH3CN, vortexed, and filtered with a 0.2 μm membrane. Analytical separation was performed on a Supelco Ascentis Express RP-Amide HPLC system with UV detection at 310 nm as described previously. Mobile phase and chromatographic conditions were as for 8.
Ligand concentrations were calculated from the peak area fitted to calibration curves by nonweighted least-squares linear regression with Shimadzu Class-VP 7.4 software.

[5] = for Rat ICE (%): 300 μmol/kg, monosodium salt
Procedure: Sample collection and handling are as previously described.^38,40
Drug Preparation and Administration. In the iron clearing experiments, the rats were given 8-14 orally at a dose of 300 μmol/kg. […] The chelators were administered as their monosodium salts (prepared by the addition of 1 equiv of NaOH to a suspension of the free acid in distilled water).
Calculation of Chelator Iron Clearing Efficiency (ICE). The term “ICE” is used as a measure of the amount of iron excretion induced by a chelator. The ICE, expressed as a percent, is calculated as (ligand-induced iron excretion/theoretical iron excretion)×100. […] The theoretical iron outputs of the chelators were generated on the basis of a 2:1 ligand:iron complex. The efficiencies in the rats and monkeys were calculated as set forth elsewhere.^37 Data are presented as the mean±the standard error of the mean; p-values were generated via a one-tailed Student's t-test in which the inequality of variances was assumed, and a p-value of <0.05 was considered significant.

[6] = po, 300 μmol/kg; historical; cited from earlier work
[7] = po, 150 μmol/kg; historical; cited from earlier work

Q: For `C[C@]1(C(=O)O)CSC(c2ccccc2O)=N1` [Compound 1a, (S)-4,5-dihydro-2-(2-hydroxyphenyl)-4-methyl-4-thiazolecarboxylic acid], which “gastrointestinal toxicity” value ([1]; in vivo) is on record?
A: Its value is “serious gastrointestinal (GI) problems”.

Q: What about the “nephrotoxicity” value ([1]; in vivo) of the same compound?
A: Its value is “not overtly nephrotoxic”.

Q: With `C[C@]1(C(=O)O)CSC(c2ccc(OCC(=O)O)cc2O)=N1` [Compound 14, (S)-4,5-dihydro-2-[2-hydroxy-4-(carboxymethoxy)phenyl]-4-methyl-4-thiazolecarboxylic acid] as the compound, how does the “Log Papp” value [2] read?
A: The value was −1.98.

Q: What about the “Cebus ICE (%)” value ([3]; po) of the same compound?
A: The value was 3.0±2.7%.

Q: What about the “Cebus ICE (%)” value ([3]; sc) of the same compound?
A: Its value is 15.9±4.3%.

Q: What about the “detection in heart” value ([4]; sc 11, heart) of the same compound?
A: Its value is “not found in the 2-8 hour time points”.

Q: And the tissue concentration ([4]; sc 11, heart, 0.5 hour)?
A: The tissue concentration was 17 nmol/g wet weight.

Q: What about the tissue concentration ([4]; sc 11, heart, 1 hour) of the same compound?
A: The tissue concentration was 23 nmol/g wet weight.

Q: What about the tissue concentration ([4]; sc 11, kidney, 0.5 hour) of the same compound?
A: Its tissue concentration is 156 nmol/g wet weight.

Q: What about the tissue concentration ([4]; sc 11, kidney, 1 hour) of the same compound?
A: Its tissue concentration is 201 nmol/g wet weight.

Q: And the tissue concentration ([4]; sc 11, kidney, 2 hours)?
A: Its tissue concentration is 161 nmol/g wet weight.

Q: And the tissue concentration ([4]; sc 11, kidney, 8 hours)?
A: The tissue concentration was 5 nmol/g wet weight.

Q: And the “detection in liver” value ([4]; sc 11, liver)?
A: The value was “only trace amounts of 14 were detected”.

Q: What about the “share of total drug (parent+metabolites)” value ([4]; sc 11, liver, 0.5 hour) of the same compound?
A: Its value is 18%.

Q: And the “share of total drug (parent+metabolites)” value ([4]; sc 11, liver, 1 hour)?
A: Its value is 39%.

Q: What about the “detection in pancreas” value ([4]; sc 11, pancreas) of the same compound?
A: The value was “Trace amounts of 14 were found at 0.5, 1, and 2 hours post dosing”.

Q: What about the “share of total (parent+metabolites)” value ([4]; sc 11, plasma, 0.5 hour) of the same compound?
A: The value was 16%.

Q: What about the “share of total (parent+metabolites)” value ([4]; sc 11, plasma, 4 hours) of the same compound?
A: The value was 50%.

Q: And the “share of total (parent+metabolites)” value ([4]; sc 11, plasma, 8 hours)?
A: The value was “the remainder”.

Q: And the “Rat ICE (%)” value ([5]; po)?
A: Its value is 2.6 ± 1.6%.

Q: And the “Rat ICE (%)” value ([5]; sc)?
A: The value was 6.0 ± 1.9%.

Q: What does the source list for `C[C@]1(C(=O)O)CSC(c2cccc(O)c2O)=N1` [Compound 3, (S)-2-(2,3-dihydroxyphenyl)-4,5-dihydro-4-methyl-4-thiazolecarboxylic acid]?
A: Log Papp [2]: −1.17; Rodent ICE (%) [6]: 4.6 ± 0.9%; Primate ICE (%) [7]: 23.1 ± 5.9%

Q: With `CCCCOc1ccc(C2=N[C@@H](C(=O)O)CS2)c(O)c1` [4′-butoxy analogue of 2, (S)-2-(4-butoxy-2-hydroxyphenyl)-4,5-dihydro-4-thiazolecarboxylic acid] as the compound, how does the time of deaths ([1]; same scenario as with 10) read?
A: The time of deaths was ≤ 24 h.

Q: For `C[C@]1(C(=O)O)CSC(c2ccc(OCCCCCC(=O)O)cc2O)=N1` [Compound 12, (S)-4,5-dihydro-2-[2-hydroxy-4-(5-carboxypentyloxy)phenyl]-4-methyl-4-thiazolecarboxylic acid], which “Log Papp” value [2] is on record?
A: The value was −1.90.

Q: And the “Cebus ICE (%)” value ([3]; po)?
A: The value was 10.6±4.0%.

Q: What about the “Cebus ICE (%)” value ([3]; sc) of the same compound?
A: The value was 18.8±8.7%.

Q: What about the “detection in heart” value ([4]; sc 11, heart) of the same compound?
A: Its value is “not found in the cardiac tissue at any of the time points”.

Q: What about the “detection in kidney” value ([4]; sc 11, kidney) of the same compound?
A: Its value is “found at 0.5 and 1 hour post drug”.

Q: What about the “detection in liver” value ([4]; sc 11, liver) of the same compound?
A: The value was “not detected in the liver 2, 4, or 8 hours post dosing”.

Q: What about the “share of total drug (parent+metabolites)” value ([4]; sc 11, liver, 0.5 hour) of the same compound?
A: The value was 11%.

Q: And the “share of total drug (parent+metabolites)” value ([4]; sc 11, liver, 1 hour)?
A: The value was 2%.

Q: What about the “detection in pancreas” value ([4]; sc 11, pancreas) of the same compound?
A: Its value is “not found at any of the time points”.

Q: And the “detection in plasma” value ([4]; sc 11, plasma)?
A: Its value is “None of the first oxidation product of alcohol 11, the dicarboxylic acid 12, was detected in the plasma”.

Q: And the “Rat ICE (%)” value ([5]; po)?
A: Its value is 8.8 ± 1.8%.

Q: And the “Rat ICE (%)” value ([5]; sc)?
A: The value was 6.5 ± 1.5%.

Q: What does the source list for `C[C@]1(C(=O)O)CSC(c2ccc(OCCCC(=O)O)cc2O)=N1` [Compound 13, (S)-4,5-dihydro-2-[2-hydroxy-4-(3-carboxypropyloxy)phenyl]-4-methyl-4-thiazolecarboxylic acid]?
A: Log Papp [2]: −2.21; Cebus ICE (%) ([3]; po): 5.4±1.5%; Cebus ICE (%) ([3]; sc): 18.1±7.5%; detection in heart ([4]; sc 11, heart): not found in the later time points; tissue concentration ([4]; sc 11, heart, 0.5 hour): ~46 nmol/g wet weight; tissue concentration ([4]; sc 11, heart, 1 hour): ~46 nmol/g wet weight; detection in kidney ([4]; sc 11, kidney): not detectable 8 hours post dosing; tissue concentration ([4]; sc 11, kidney, 0.5 hour): ~300 nmol/g wet weight; tissue concentration ([4]; sc 11, kidney, 1 hour): ~300 nmol/g wet weight; detection in liver ([4]; sc 11, liver): no 13 remained in the liver; share of total drug (parent+metabolites) ([4]; sc 11, liver, 0.5 hour): 71%; share of total drug (parent+metabolites) ([4]; sc 11, liver, 1 hour): 59%; share of total drug (metabolites) ([4]; sc 11, liver, 2 hours): 66%; share of total drug (metabolites) ([4]; sc 11, liver, 4 hours): 70%; tissue concentration ([4]; sc 11, pancreas, 0.5 hour): 19 nmol/g wet weight; tissue concentration ([4]; sc 11, pancreas, 1 hour): 23 nmol/g wet weight; share of total (parent+metabolites) ([4]; sc 11, plasma, 0.5 hour): 62%; share of total (parent+metabolites) ([4]; sc 11, plasma, 4 hours): 50%; share of total (parent+metabolites) ([4]; sc 11, plasma, 8 hours): 65%; Rat ICE (%) ([5]; po): 3.7 ± 1.7%; Rat ICE (%) ([5]; sc): 4.3 ± 1.1%

Q: For `C[C@]1(C(=O)O)CSC(c2ccc(OCCOCCO)cc2O)=N1` [Compound 8, (S)-4,5-dihydro-2-[2-hydroxy-4-(5-hydroxy-3-oxapentyloxy)phenyl]-4-methyl-4-thiazolecarboxylic acid], which “Log Papp” value [2] is on record?
A: The value was −0.53.

Q: And the “Cebus ICE (%)” value ([3]; po)?
A: The value was 9.8±3.4%.

Q: What about the “share of total drug concentration” value ([4]; sc 7, plasma, 0.5 hour) of the same compound?
A: Its value is 5%.

Q: What about the “share of drug (parent+metabolite)” value ([4]; sc 8, 300 μmol/kg, liver, 0.5 hour) of the same compound?
A: The value was 53%.

Q: And the “detection in liver” value ([4]; sc 8, 300 μmol/kg, liver, 8 hours)?
A: The value was “very little parent alcohol 8”.

Q: What about the “proportion of 8 converted to 9” value ([4]; sc 8, 300 μmol/kg, plasma, 0.5 hour post drug) of the same compound?
A: The value was ~60%.

Q: And the “detection in plasma” value ([4]; sc 8, 300 μmol/kg, plasma, 8 hour)?
A: The value was “Neither the parent 8 nor the metabolite 9 was found at the 8 hour time point”.

Q: And the “conversion of 8 to 9” value ([4]; sc 8, 300 μmol/kg, tissues)?
A: Its value is “very efficiently oxidized to carboxylic acid 9; also recorded: very efficiently converted to acid 9; also recorded: very quickly oxidized to 9”.

Q: What about the “Rat ICE (%)” value ([5]; po) of the same compound?
A: Its value is 15.4 ± 5.6%.

Q: Which “Log Papp” value [2] does the source give for `COCCCCCCOc1ccc(C2=N[C@@](C)(C(=O)O)CS2)c(O)c1` [Compound 10, (S)-4,5-dihydro-2-[2-hydroxy-4-(6-methoxyhexyloxy)phenyl]-4-methyl-4-thiazolecarboxylic acid] here?
A: Its value is 0.95.

Q: And the “time of death post drug” value ([5]; po 300 μmol/kg, bile duct-cannulated rats, one animal)?
A: The value was “about 22 hours”.

Q: What about the “drug-induced iron excretion, peak” value ([5]; po 300 μmol/kg, 6 hours post drug) of the same compound?
A: Its value is 300 μg/kg of iron.

Q: What about the drug-induced iron excretion ([5]; po 300 μmol/kg, 24 hours post dosing) of the same compound?
A: Its drug-induced iron excretion is 80 μg/kg of iron.

Q: What about the “Rat ICE (%)” value ([5]; po) of the same compound?
A: The value was 15.8 ± 3.7%.

Q: And the “overt toxicity” value ([5]; rats, po 300 μmol/kg, single dose)?
A: Its value is “profoundly toxic; also recorded: very toxic; also recorded: Toxic in Rats”.
